Where “and” joins values, the source holds several entries; their conditions need not be identical. Equal values may be shown once. Inconclusive results and toxic doses are left out.
System: L1210 leukemia ip in BDF1 mice, survival T/C
Test: NCI In Vivo Anticancer Drug Screen. Data for tumor model L1210 Leukemia (intraperitoneal) in B6D2F1 (BDF1) mice
Conditions: endpoint: mean survival time, higher = longer survival
Summary of the method: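 Ratio derived from survival: compound-dosed mice over vehicle-dosed mice, all bearing a transplantable tumor.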

[1] = dose: 100.0 mg/kg/injection, schedule: Q01DX001 (ip), vehicle: carboxymethylcellulose (CMC)
[2] = dose: 200.0 mg/kg/injection, schedule: Q01DX001 (ip), vehicle: carboxymethylcellulose (CMC)
[3] = dose: 100.0 mg/kg/injection, schedule: Q04DX003 (ip), vehicle: Klucel (hydroxypropylcellulose) (HPC)
[4] = dose: 200.0 mg/kg/injection, schedule: Q04DX003 (ip), vehicle: Klucel (hydroxypropylcellulose) (HPC)
[5] = dose: 100.0 mg/kg/injection, schedule: Q01DX009 (ip), vehicle: saline
[6] = dose: 200.0 mg/kg/injection, schedule: Q01DX009 (ip), vehicle: saline
[7] = dose: 100.0 mg/kg/injection, schedule: Q04DX003 (ip), vehicle: saline with Tween-80
[8] = dose: 200.0 mg/kg/injection, schedule: Q04DX003 (ip), vehicle: saline with Tween-80
[9] = dose: 400.0 mg/kg/injection, schedule: Q04DX003 (ip), vehicle: saline with Tween-80
[10] = dose: 100.0 mg/kg/injection, schedule: Q01DX009 (ip), vehicle: Klucel (hydroxypropylcellulose) (HPC)
[11] = dose: 200.0 mg/kg/injection, schedule: Q01DX009 (ip), vehicle: Klucel (hydroxypropylcellulose) (HPC)
[12] = dose: 400.0 mg/kg/injection, schedule: Q04DX003 (ip), vehicle: Klucel (hydroxypropylcellulose) (HPC)

CCCCOC1OCN(C(C)(C)C)CC1(C)C (configuration not stated)
T/C (dose: 100.0 mg/kg/injection, schedule: Q04DX002 (ip), vehicle: saline): 104 % of control | T/C (dose: 200.0 mg/kg/injection, schedule: Q04DX002 (ip), vehicle: saline): 112 % of control | T/C (dose: 400.0 mg/kg/injection, schedule: Q04DX002 (ip), vehicle: saline): 101 % of control

Nc1ncnc2c1ncn2C1OC(CO)C(S)C1O (configuration not stated)
T/C [1]: 105 % of control | T/C [2]: 92 % of control

O=C(Cn1ccc(=O)[nH]c1=O)Nc1ccc(O)c(C(=O)O)c1
T/C (dose: 50.0 mg/kg/injection, schedule: Q04DX003 (ip), vehicle: Klucel (hydroxypropylcellulose) (HPC)): 100 % of control | T/C [3]: 107 % of control | T/C [4]: 100 % of control

CCCCC(CC)CNCC(CC)CCCC (configuration not stated)
T/C (dose: 25.0 mg/kg/injection, schedule: Q04DX003 (ip), vehicle: carboxymethylcellulose (CMC)): 100 % of control | T/C (dose: 50.0 mg/kg/injection, schedule: Q04DX003 (ip), vehicle: carboxymethylcellulose (CMC)): 102 % of control | T/C (dose: 100.0 mg/kg/injection, schedule: Q04DX003 (ip), vehicle: carboxymethylcellulose (CMC)): 97 % of control | T/C (dose: 100.0 mg/kg/injection, schedule: Q04DX013 (ip), vehicle: carboxymethylcellulose (CMC)): 96 % of control

O=C(O)COc1ccc(Cl)cc1Cl
T/C [5]: 100 % of control | T/C [6]: 100 % of control

CC1(O)CCCCC1c1ccccc1 (configuration not stated)
T/C (dose: 100.0 mg/kg/injection, schedule: Q04DX003 (ip), vehicle: other): 104 % of control | T/C (dose: 200.0 mg/kg/injection, schedule: Q04DX003 (ip), vehicle: other): 95 % of control | T/C (dose: 400.0 mg/kg/injection, schedule: Q04DX003 (ip), vehicle: other): 93 % of control

CSc1ccc2[nH]c3c(c2c1)CCNC3
T/C [7]: 108 % of control | T/C [8]: 105 % of control | T/C [9]: 98 % of control

CCCCCC(C)O[Si](C)Oc1ccccc1 (configuration not stated)
T/C [7]: 100 % of control | T/C [8]: 100 % of control | T/C [9]: 91 % of control

CCOC(=O)CCc1ccc(N=NN(C)C(C)CC)cc1 (configuration not stated)
T/C [1]: 111 % of control | T/C [2]: 105 % of control | T/C (dose: 400.0 mg/kg/injection, schedule: Q01DX001 (ip), vehicle: carboxymethylcellulose (CMC)): 111 % of control

Cc1cccc(C(N)=S)n1
T/C [10]: 97 % of control | T/C [11]: 93 % of control

O=C(O)c1cccc(C#Cc2ccccc2)c1
T/C (dose: 100.0 mg/kg/injection, schedule: Q01DX001 (ip), vehicle: Klucel (hydroxypropylcellulose) (HPC)): 97 % of control | T/C (dose: 200.0 mg/kg/injection, schedule: Q01DX001 (ip), vehicle: Klucel (hydroxypropylcellulose) (HPC)): 103 % of control

COC1OC2COC(c3ccccc3)OC2C(N=Cc2ccccc2)C1O (configuration not stated)
T/C (dose: 100.0 mg/kg/injection, schedule: Q01DX009 (ip), vehicle: saline with Tween-80): 97 % of control | T/C (dose: 200.0 mg/kg/injection, schedule: Q01DX009 (ip), vehicle: saline with Tween-80): 101 % of control | T/C (dose: 400.0 mg/kg/injection, schedule: Q01DX009 (ip), vehicle: saline with Tween-80): 98 % of control

CN(N)C(=O)Nc1ccccc1
T/C (dose: 75.0 mg/kg/injection, schedule: Q01DX001 (ip), vehicle: carboxymethylcellulose (CMC)): 100 % of control | T/C (dose: 150.0 mg/kg/injection, schedule: Q01DX001 (ip), vehicle: carboxymethylcellulose (CMC)): 100 % of control

C/C=C/C(=O)OC
T/C [5]: 101 % of control | T/C [6]: 102 % of control | T/C (dose: 400.0 mg/kg/injection, schedule: Q01DX009 (ip), vehicle: saline): 104 % of control

N#CC(c1ccccc1)C(c1ccccc1)c1ccccc1 (configuration not stated)
T/C (dose: 50.0 mg/kg/injection, schedule: Q01DX001 (ip), vehicle: saline): 102 % of control | T/C (dose: 100.0 mg/kg/injection, schedule: Q01DX001 (ip), vehicle: saline): 102 % of control | T/C (dose: 200.0 mg/kg/injection, schedule: Q01DX001 (ip), vehicle: saline): 98 % of control | T/C (dose: 400.0 mg/kg/injection, schedule: Q01DX001 (ip), vehicle: saline): 98 % of control

O=C(CCl)NCCCC1CCCCC1
T/C (dose: 12.5 mg/kg/injection, schedule: Q04DX002 (ip), vehicle: saline): 100 % of control | T/C (dose: 25.0 mg/kg/injection, schedule: Q04DX002 (ip), vehicle: saline): 96 % of control | T/C (dose: 50.0 mg/kg/injection, schedule: Q04DX002 (ip), vehicle: saline): 104 % of control

O=C1c2cccc3c([N+](=O)[O-])ccc(c23)C(=O)N1CC1CCCO1 (configuration not stated)
T/C [10]: 108 % of control | T/C [11]: 110 % of control

COc1ccc(CNc2ncccn2)cc1
T/C [3]: 102 % of control | T/C [4]: 102 % of control | T/C [12]: 107 % of control

CCCCO.[Sn]
T/C (dose: 50.0 mg/kg/injection, schedule: Q01DX009 (ip), vehicle: saline): 99 % of control and 109 % of control | T/C [5]: 96 % of control and 109 % of control | T/C [6]: 99 % of control and 106 % of control

Nc1cc(C(=O)Nc2ccc(C3=NCCN3)cc2)ccc1C(=O)Nc1ccc(C2=NCCN2)cc1
T/C (dose: 0.49 mg/kg/injection, schedule: Q01DX Z (ip), vehicle: saline): 107 % of control | T/C (dose: 0.73 mg/kg/injection, schedule: Q01DX Z (ip), vehicle: saline): 117 % of control | T/C (dose: 2.5 mg/kg/injection, schedule: Q01DX Z (ip), vehicle: methylcellulose (MC)): 103 % of control | T/C (dose: 2.7 mg/kg/injection, schedule: Q01DX Z (ip), vehicle: carboxymethylcellulose (CMC)): 153 % of control | T/C (dose: 4.0 mg/kg/injection, schedule: Q01DX Z (ip), vehicle: carboxymethylcellulose (CMC)): 162 % of control | T/C (dose: 4.0 mg/kg/injection, schedule: Q01DX Z (ip), vehicle: methylcellulose (MC)): 156 % of control | T/C (dose: 4.4 mg/kg/injection, schedule: Q01DX015 (ip), vehicle: carboxymethylcellulose (CMC)): 259 % of control | T/C (dose: 6.0 mg/kg/injection, schedule: Q01DX Z (ip), vehicle: carboxymethylcellulose (CMC)): 212 % of control | T/C (dose: 6.0 mg/kg/injection, schedule: Q01DX Z (ip), vehicle: methylcellulose (MC)): 250 % of control | T/C (dose: 6.6 mg/kg/injection, schedule: Q01DX015 (ip), vehicle: carboxymethylcellulose (CMC)): 329 % of control | T/C (dose: 9.0 mg/kg/injection, schedule: Q01DX Z (ip), vehicle: carboxymethylcellulose (CMC)): 247 % of control | T/C (dose: 9.0 mg/kg/injection, schedule: Q01DX Z (ip), vehicle: methylcellulose (MC)): 200 % of control and 346 % of control | T/C (dose: 10.0 mg/kg/injection, schedule: Q01DX015 (ip), vehicle: carboxymethylcellulose (CMC)): 303 % of control | T/C (dose: 14.0 mg/kg/injection, schedule: Q01DX Z (ip), vehicle: carboxymethylcellulose (CMC)): 345 % of control | T/C (dose: 14.0 mg/kg/injection, schedule: Q01DX Z (ip), vehicle: methylcellulose (MC)): 226 % of control and 329 % of control | T/C (dose: 15.0 mg/kg/injection, schedule: Q01DX015 (ip), vehicle: carboxymethylcellulose (CMC)): 333 % of control | T/C (dose: 15.0 mg/kg/injection, schedule: Q01DX Z (oral), vehicle: carboxymethylcellulose (CMC)): 96 % of control | T/C (dose: 20.0 mg/kg/injection, schedule: Q01DX Z (ip), vehicle: carboxymethylcellulose (CMC)): 154 % of control and 279 % of control | T/C (dose: 20.0 mg/kg/injection, schedule: Q01DX Z (ip), vehicle: methylcellulose (MC)): 94 % of control | T/C (dose: 30.0 mg/kg/injection, schedule: Q01DX Z (ip), vehicle: carboxymethylcellulose (CMC)): 152 % of control | T/C (dose: 30.0 mg/kg/injection, schedule: Q01DX Z (oral), vehicle: carboxymethylcellulose (CMC)): 93 % of control | T/C (dose: 45.0 mg/kg/injection, schedule: Q01DX Z (ip), vehicle: carboxymethylcellulose (CMC)): 101 % of control | T/C (dose: 47.0 mg/kg/injection, schedule: Q01DX Z (ip), vehicle: methylcellulose (MC)): 86 % of control | T/C (dose: 60.0 mg/kg/injection, schedule: Q01DX Z (oral), vehicle: carboxymethylcellulose (CMC)): 93 % of control | T/C (dose: 120.0 mg/kg/injection, schedule: Q01DX Z (oral), vehicle: carboxymethylcellulose (CMC)): 117 % of control | T/C (dose: 240.0 mg/kg/injection, schedule: Q01DX Z (oral), vehicle: carboxymethylcellulose (CMC)): 100 % of control | T/C (dose: 480.0 mg/kg/injection, schedule: Q01DX Z (oral), vehicle: carboxymethylcellulose (CMC)): 94 % of control | T/C (dose: 960.0 mg/kg/injection, schedule: Q01DX Z (oral), vehicle: carboxymethylcellulose (CMC)): 107 % of control

CCCCNC(=O)Nc1cccc(C)c1C
T/C [10]: 101 % of control | T/C [3]: 95 % of control | T/C [11]: 94 % of control | T/C [4]: 93 % of control | T/C (dose: 400.0 mg/kg/injection, schedule: Q01DX009 (ip), vehicle: Klucel (hydroxypropylcellulose) (HPC)): 93 % of control | T/C [12]: 97 % of control

Source: PubChem BioAssay AID248 (DTP/NCI, 2004)
